In brackets after ≈: the same amount, converted by molar mass. Where two headings read alike, the source gives them in different places. Where a SMILES comes first, the peptide text is derived from it. Bridges are numbered along the chain shown (N, C = ends).

A short description of test [1]: Confocal microscopy of GUVs doped with Und-NBD-lipid II. The conditions noted are these: GUVs 0.4 mol% Und-NBD-LII in DOPC, 1 μM antibiotic. The procedure:
GUVs were prepared by electroformation using in-house build Teflon cells with two titanium wires as electrodes. About 1 μl of 0.5 mM DOPC with 0.4 mol% NBD–lipid II in 2:1 CHCl3/MeOH was brushed on both electrodes and thoroughly dried under vacuum. Next, the cell was filled with 350 μl 300 mM sucrose, and GUVs were formed by applying an oscillating voltage (sine wave, 2 V, 10 Hz) for 90 min and released from the electrodes (square wave, 2 V, 2 Hz). Microscopy slides were precoated using a 1 mg ml^−1 BSA solution. Slides were filled with 300 μl 300 mM glucose solution, followed by addition of the antibiotic and finally 30–50 μl GUV solution. The GUVs were imaged using a Zeiss LSM 880 confocal microscope with a ×63/1.2NA glycerol objective lens. Green fluorescence (530–545 nm) was detected after excitation with a 488 nm laser.

The subject of the next test is S. simulans 22. Put plainly: MIC assays under standard conditions. It is filed as cell-based, Staphylococcus simulans. The conditions noted are these: cation-adjusted MHB, 37 °C; for MIC: Staphylococcus simulans, 22. The gist of the method:
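Broth microdilution in cation-adjusted MHB, inoculum from OD600 0.5 TSB culture diluted 100-fold, 37 °C with shaking. Streptococci: 5% lysed horse blood, 5% CO2, MIC read visually at 20–24 h; S. simulans read at 16–20 h.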

The test system of a further test is S. pneumoniae ATCC6305. In words: MIC assays under standard conditions. Format: cell-based, Streptococcus pneumoniae. The conditions noted are these: Supplementary Table 1, cation-adjusted MHB + 5% lysed horse blood, 5% CO2, 20–24 h. As for the experimental part:
Plectasin and analogues were serially diluted in cation-adjusted Mueller–Hinton broth (MHB) in round-bottom polypropylene 96-well plates (50 µl per well). Selected bacterial strains were grown from glycerol stocks on blood agar plates. Individual colonies were inoculated in TSB and incubated at 37 °C while shaking until OD600 reached 0.5. Bacterial suspensions were then diluted 100 times in cation-adjusted MHB and distributed (50 μl per well) over the microplate containing the diluted plectasin solutions. Plates were covered by a gas-permeable adhesive membrane and incubated at 37 °C while shaking. MICs were determined by visual inspection after 16–20 h (Staphylococcus) or 20–24 h (Streptococcus). For Streptococcus strains, the broth was additionally supplemented with 5% lysed horse blood, and the microplates were incubated under 5% CO2 atmosphere. In the assays, we used the following strains: S. simulans, S. pneumoniae serotype 8, S. pneumoniae ATCC6305 and Streptococcus pyogenes M3.

A short description of test [2]: Isothermal titration calorimetry with lipid II LUVs. It is filed as binding. Particulars: mutant vs plectasin. As for the experimental part:
About 200 nm large unilamellar vesicles (LUVs) were prepared from 2 mol% lipid II in DOPC by the extrusion technique. ITC measurements were conducted on a low-volume Affinity ITC (TA instruments). All measurements were conducted at 37 °C. Samples were degassed for 10 min before the ITC experiments. The cell was filled with plectasin (in 50 mM HEPES, 150 mM NaCl at pH = 7.2) and titrated with LUVs in the same buffer under constant stirring at 125 r.p.m. The data were analysed using the Nano Analyze software version 3.11.0 (TA Instruments). After baseline correction, the integrated peaks were fitted using an independent binding model. Each measurement was acquired in duplicate.
Background: ITC needs no label: the signal is the heat of the interaction.

ramoplanin: in test [1], the “lipid II cluster/domain formation on GUVs” value is on record as “caused the formation of lipid II domains in liposomes”.

Turning to copsin, in test [1], the “lipid II cluster/domain formation on GUVs” value was “caused the formation of lipid II domains in liposomes”.

Take teicoplanin: the “lipid II cluster/domain formation on GUVs” value in test [1] was “caused the formation of lipid II domains in liposomes”.

For the molecule `CC[C@H](C)[C@@H]1NC(=O)[C@H](CO)NC(=O)[C@H](CCCCN)NC(=O)[C@@H]2CSSC[C@@H](C(=O)N[C@@H](Cc3ccc(O)cc3)C(=O)O)NC(=O)[C@H](CCCCN)NC(=O)[C@@H]3CSSC[C@H](NC(=O)[C@H](CCC(N)=O)NC(=O)[C@H](CCSC)NC(=O)[C@H](CC(=O)O)NC(=O)[C@H](CC(=O)O)NC(=O)[C@H](CCC(=O)O)NC(=O)[C@H](CC(=O)O)NC(=O)[C@H](Cc4c[nH]c5ccccc45)NC(=O)[C@@H]4CCCN4C(=O)CNC(=O)[C@H](CC(N)=O)NC(=O)[C@@H](NC(=O)CNC(=O)[C@H](Cc4ccccc4)NC(=O)CN)CSSC[C@H](NC(=O)[C@H](C)NC(=O)CNC(=O)CNC(=O)[C@H](CCCCN)NC(=O)[C@H](Cc4ccc(O)cc4)NC(=O)CNC(=O)[C@H](CCCCN)NC1=O)C(=O)N[C@@H](C)C(=O)N[C@@H](CCCCN)C(=O)NCC(=O)NCC(=O)N[C@@H](Cc1ccccc1)C(=O)N[C@@H](C(C)C)C(=O)N3)C(=O)N[C@@H](Cc1c[nH]cn1)C(=O)N[C@@H](CC(N)=O)C(=O)N[C@@H](Cc1c[nH]cn1)C(=O)N2` [Y29A] (H-GFGCNGPWDEDDMQCHNHCKSIKGYKGGACAKGGFVCKCY-OH; disulfide 4-30, 15-37, 19-39 (inferred); N-terminus and C-terminus assumed), in the test with S. simulans 22 (Supplementary Table 1, 16–20 h), the “Minimum inhibitory concentration, S. simulans” value was 12,5 μg/mL. For the same molecule, the “Minimum inhibitory concentration, S. pneumoniae ATCC6305” value in the test on S. pneumoniae ATCC6305 is greater than 50 µg/mL.

For the molecule `CC[C@H](C)[C@@H]1NC(=O)[C@H](CO)NC(=O)[C@H](CCCCN)NC(=O)[C@@H]2CSSC[C@@H](C(=O)N[C@@H](Cc3ccc(O)cc3)C(=O)O)NC(=O)[C@H](CCCCN)NC(=O)[C@@H]3CSSC[C@H](NC(=O)[C@H](CCC(N)=O)NC(=O)[C@H](CCSC)NC(=O)[C@H](CC(=O)O)NC(=O)[C@H](CC(=O)O)NC(=O)[C@H](CCC(=O)O)NC(=O)[C@H](CC(=O)O)NC(=O)[C@H](Cc4c[nH]c5ccccc45)NC(=O)[C@@H]4CCCN4C(=O)CNC(=O)[C@H](CC(N)=O)NC(=O)[C@@H](NC(=O)CNC(=O)[C@H](Cc4ccccc4)NC(=O)CN)CSSC[C@H](NC(=O)[C@H](Cc4ccc(O)cc4)NC(=O)CNC(=O)CNC(=O)[C@H](CCCNC(=N)N)NC(=O)[C@H](Cc4ccc(O)cc4)NC(=O)CNC(=O)[C@H](CCCCN)NC1=O)C(=O)N[C@@H](C)C(=O)N[C@@H](CCCCN)C(=O)NCC(=O)NCC(=O)N[C@@H](Cc1ccccc1)C(=O)N[C@@H](C(C)C)C(=O)N3)C(=O)N[C@@H](Cc1c[nH]cn1)C(=O)N[C@@H](CC(N)=O)C(=O)N[C@@H](Cc1c[nH]cn1)C(=O)N2` [K26R] (H-GFGCNGPWDEDDMQCHNHCKSIKGYRGGYCAKGGFVCKCY-OH; disulfide 4-30, 15-37, 19-39 (inferred); N-terminus and C-terminus assumed), the “Minimum inhibitory concentration, S. simulans” value in the test with S. simulans 22 (Supplementary Table 1, 16–20 h) was no more than 0.78 µg/mL. Besides, the “Minimum inhibitory concentration, S. pneumoniae ATCC6305” value in the test on S. pneumoniae ATCC6305 was 1,56 μg/mL.

Consider `CC[C@H](C)[C@@H]1NC(=O)[C@H](CO)NC(=O)[C@H](CCCCN)NC(=O)[C@@H]2CSSC[C@@H](C(=O)N[C@@H](Cc3ccc(O)cc3)C(=O)O)NC(=O)[C@H](CCCCN)NC(=O)[C@@H]3CSSC[C@H](NC(=O)[C@H](CCC(N)=O)NC(=O)[C@H](CCSC)NC(=O)[C@H](CC(=O)O)NC(=O)[C@H](CC(=O)O)NC(=O)[C@H](CCC(=O)O)NC(=O)[C@H](CC(=O)O)NC(=O)[C@H](Cc4c[nH]c5ccccc45)NC(=O)[C@@H]4CCCN4C(=O)CNC(=O)[C@H](CC(N)=O)NC(=O)[C@@H](NC(=O)CNC(=O)[C@H](Cc4ccccc4)NC(=O)CN)CSSC[C@H](NC(=O)[C@H](Cc4ccc(O)cc4)NC(=O)CNC(=O)CNC(=O)[C@H](CCCCN)NC(=O)[C@H](Cc4ccc(O)cc4)NC(=O)CNC(=O)[C@H](CCCCN)NC1=O)C(=O)N[C@@H](C)C(=O)N[C@@H](CCCCN)C(=O)NCC(=O)NCC(=O)N[C@@H](Cc1ccccc1)C(=O)N[C@@H](C(C)C)C(=O)N3)C(=O)N[C@@H](Cc1c[nH]cn1)C(=O)N[C@@H](CC(N)=O)C(=O)N[C@@H](C)C(=O)N2` [H18A] (H-GFGCNGPWDEDDMQCHNACKSIKGYKGGYCAKGGFVCKCY-OH; disulfide 4-30, 15-37, 19-39 (inferred); N-terminus and C-terminus assumed), for which, in the test with S. simulans 22 (Supplementary Table 1, 16–20 h), the “Minimum inhibitory concentration, S. simulans” value was greater than 50 µg/mL. Further, the “loss in lipid II binding affinity (ITC)” value in test [2] is reported as greater than 10 fold.

For the molecule `CC[C@H](C)[C@@H]1NC(=O)[C@H](CO)NC(=O)[C@H](CCCCN)NC(=O)[C@@H]2CSSC[C@@H](C(=O)N[C@@H](Cc3ccccc3)C(=O)O)NC(=O)[C@H](CCCCN)NC(=O)[C@@H]3CSSC[C@H](NC(=O)[C@H](CCC(N)=O)NC(=O)[C@H](CCSC)NC(=O)[C@H](CC(=O)O)NC(=O)[C@H](CC(=O)O)NC(=O)[C@H](CCC(=O)O)NC(=O)[C@H](CC(=O)O)NC(=O)[C@H](Cc4c[nH]c5ccccc45)NC(=O)[C@@H]4CCCN4C(=O)CNC(=O)[C@H](CC(N)=O)NC(=O)[C@@H](NC(=O)CNC(=O)[C@H](Cc4ccccc4)NC(=O)CN)CSSC[C@H](NC(=O)[C@H](Cc4ccc(O)cc4)NC(=O)CNC(=O)CNC(=O)[C@H](CCCCN)NC(=O)[C@H](Cc4ccc(O)cc4)NC(=O)CNC(=O)[C@H](CCCCN)NC1=O)C(=O)N[C@@H](C)C(=O)N[C@@H](CCCCN)C(=O)NCC(=O)NCC(=O)N[C@@H](Cc1ccccc1)C(=O)N[C@@H](C(C)C)C(=O)N3)C(=O)N[C@@H](Cc1c[nH]cn1)C(=O)N[C@@H](CC(N)=O)C(=O)N[C@@H](Cc1c[nH]cn1)C(=O)N2` [Y40F] (H-GFGCNGPWDEDDMQCHNHCKSIKGYKGGYCAKGGFVCKCF-OH; disulfide 4-30, 15-37, 19-39 (inferred); N-terminus and C-terminus assumed), the “Minimum inhibitory concentration, S. simulans” value in the test with S. simulans 22 (Supplementary Table 1, 16–20 h) is listed as 1,56 μg/mL. Besides, the “Minimum inhibitory concentration, S. pneumoniae ATCC6305” value in the test on S. pneumoniae ATCC6305 is 0,78 μg/mL.

As for `CN[C@H](CC(C)C)C(=O)N[C@H]1C(=O)N[C@@H](CC(N)=O)C(=O)N[C@H]2C(=O)N[C@H]3C(=O)N[C@H](C(=O)N[C@H](C(=O)O)c4cc(O)cc(O)c4-c4cc3ccc4O)[C@H](O)c3ccc(c(Cl)c3)Oc3cc2cc(c3O[C@@H]2O[C@H](CO)[C@@H](O)[C@H](O)[C@H]2O[C@H]2C[C@](C)(N)[C@H](O)[C@H](C)O2)Oc2ccc(cc2Cl)[C@H]1O` [Vancomycin, reference compound], the MIC in the test with S. simulans 22 (Supplementary Table 1, 16–20 h, read-out: Minimum inhibitory concentration, S. simulans) is 0.78 mg/L (≈ 0.538 µM); with S. simulans 22 (standard conditions, visual inspection after 16–20 h, read-out: MIC), 0.78 mg/L (≈ 0.538 µM); in the test with S. pneumoniae ATCC6305 (Streptococcus pneumoniae, ATCC6305, read-out: Minimum inhibitory concentration, S. pneumoniae ATCC6305), less than 0.78 mg/L.
